Assay results from paper PMC5253734, “A chemical genetic screen uncovers a small molecule enhancer of the N-acylethanolamine degrading enzyme, fatty acid amide hydrolase, in Arabidopsis” (Scientific Reports, 2017).

Assays:
[1] = target: T1, AtFAAH (Arabidopsis fatty acid amide hydrolase) (Arabidopsis thaliana, UniProt Q7XJJ7); experiment: radiometric TLC amidohydrolase assay, initial velocities, Michaelis-Menten; format: biochemical; details: labelled compound ([1-14C]); pH 9 Bis-Tris propane, 0.2 mM DDM, 30 °C; range covers without and with 100 μM MDPD; read-out: apparent Km
T1 construct: gene FAAH
T1 sequence (Q7XJJ7 1-607): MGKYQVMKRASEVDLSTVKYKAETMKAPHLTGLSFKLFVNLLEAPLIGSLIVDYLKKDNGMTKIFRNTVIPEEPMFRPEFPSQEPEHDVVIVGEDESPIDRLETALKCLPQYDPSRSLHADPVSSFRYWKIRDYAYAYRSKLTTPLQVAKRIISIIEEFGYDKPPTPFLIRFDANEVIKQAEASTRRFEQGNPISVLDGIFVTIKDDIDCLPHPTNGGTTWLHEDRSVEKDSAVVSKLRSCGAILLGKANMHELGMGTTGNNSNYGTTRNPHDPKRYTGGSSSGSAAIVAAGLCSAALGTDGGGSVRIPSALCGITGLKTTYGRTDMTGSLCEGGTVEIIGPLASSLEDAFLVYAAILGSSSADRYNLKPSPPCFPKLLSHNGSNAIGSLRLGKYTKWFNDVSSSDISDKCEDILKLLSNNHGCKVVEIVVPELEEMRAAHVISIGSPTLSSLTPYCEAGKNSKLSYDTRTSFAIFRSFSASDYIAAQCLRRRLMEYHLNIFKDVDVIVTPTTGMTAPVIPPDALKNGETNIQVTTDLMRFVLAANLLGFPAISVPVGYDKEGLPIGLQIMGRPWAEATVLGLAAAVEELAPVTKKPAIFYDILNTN

[2] = target: T1, AtFAAH (Arabidopsis fatty acid amide hydrolase); experiment: radiometric TLC amidohydrolase assay; format: biochemical; details: activator (raises apparent Vmax, not Km); 100 μM [14C]-NAE 12:0; pH 9, 0.2 mM DDM, 30 °C

Km [1] [µM]	fold increase in activity at 100 μM [2]	Compound
27 to 28		CCCCCCCCCCCC(=O)NCCO [NAE 12:0, N-lauroylethanolamine]
	~ 4 fold	COc1ccccc1-n1cc2c(c1-c1ccccc1)c(=O)n(C)c(=O)n2C [MDPD, 6-(2-methoxyphenyl)-1,3-dimethyl-5-phenyl-1H-pyrrolo[3,4-d]pyrimidine-2,4(3 H,6 H)-dione]
